Data on 32 molecules can be found in patent publication US8829035B2, “Agent for treatment or prevention of diseases associated with activity of neurotrophic factors” (Sumitomo Chemical Company, Limited, priority 2009, dated 2014).

Structures can show the parent of a compound that is named as a salt.

The subject of one experiment is activity of 200 ng/mL of NGF (NXF promoter-driven luciferase in PC12 cells). The experiment can be described thus: Luciferase reporter assay (NXF promoter) in PC12 cells: potentiation of NGF activity. The arrangement: key: +: Showed relatively weak potentiation (potentiation only exhibited at 10 μM); ++: Showed potentiation; +++: Showed particularly strong potentiation (2-fold or greater potentiation of the activity of 200 ng/mL of NGF at 1 μM). To be noted: Test Example 1, relative luciferase activity vs 200 ng/mL NGF alone, overnight (approx. 16 hours). It counts as cell-based, rat. As for the experimental part:
The forward primer 5′-[…]-3′ and the reverse primer 5′-[…]-3′ were prepared as the PCR primers according to the sequence information for the NXF gene genome sequence (Accession Nos. AB054577 and NC—000085), and the PCR method was used to isolate from approximately 5 kbp upstream from the translated region of the NXF gene promoter portion to the vicinity of the transcription start site. For this, 1 μg of mouse genomic DNA (Takara) was used as the template, and the 2-step PCR reaction was carried out for 35 cycles, the conditions for which were 95° C./1 m in the denaturing step, and 68° C./8 m in the annealing and extension steps, to obtain the PCR product. The NXF promoter fragment was inserted into the SmaI site of the pGL3 Basic vector (Promega) in the upstream of luciferase gene to prepare a reporter plasmid that would express the luciferase enzyme driven by the NXF promoter.
PC12 cells (available from the ATCC) were cultured using RPMI medium (GIBCO-BRL) with 5% FCS (GIBCO-BR) and 15% horse serum (GIBCO-BRL) added, and 1 mM in sodium pyruvate (GIBCO-BRL), at 37° C. in the presence of 5% CO2. After transfection in 10^6 of these PC12 cells for 2 days with 12 μg of the above-described reporter plasmid and 1 μg of pRC/RSV vector (Invitrogen) using the Lipofectamine 2000 reagent (Invitrogen), the medium was exchanged for fresh medium containing 40 mg/L of geneticin sulfate (GIBCO), and this was cultured continuously. Culturing was continued for approximately 1 month with medium exchange of the cultured medium containing 40 mg/L of geneticin sulfate (GIBCO) every several days, with the result that multiple colonies of the obtained cells were picked up. Among these, one of the colonies that induced luciferase activity in the presence of 40 ng/mL of NGF (Wako Pure Chemicals) was selected and used for the cells to evaluate the activity of the compounds below.
These cells were set up in 96-well plates with 80% confluence, and the luciferase reporter assay was conducted using the Promega Steady Glo luciferase assay kit. The procedure was carried out overnight (approx. 16 hours) using culture medium containing the compound, and the Steady Glo substrate solution was added to the cells in half-diluted in PBS after removal of all remaining medium containing the compound. After this was allowed to stand for 30 minutes, the respective quantity of light produced was measured with a luminometer (Envision Perkin Elmer).
The activity of the compounds for evaluation was measured as the potentiation of the activity of 200 ng/mL of NGF. For the experiment control wells, the negative control well had medium containing only a final concentration of 0.1% DMSO, the positive control well had medium containing a saturation concentration of NGF. In addition, a test well was set up containing 0.1% DMSO with 200 ng/mL of NGF added corresponding to a 0 compound concentration. When its luciferase activity was taken as a standard, the relative luciferase activity could be calculated for the test wells to which the compound solution (dissolved in DMSO and prepared to have a final DMSO concentration of 0.1%) had been added in addition to the 200 ng/mL of NGF, to find the potentiation of the activity of 200 ng/mL of NGF due to that compound.
For `c1ccc(COCc2nc3cc(-c4nc5ccccc5s4)ccc3n2-c2ccccc2)cc1` [Ex. 1, 5-(benzothiazol-2-yl)-1-phenyl-2-(phenylmethoxy)methylbenzimidazole], the “Activity (potentiation of NGF activity)” value was “+”.
On the same count and under the same terms, the same measure for `COCc1nc2cc(-c3nc4ccccc4s3)ccc2n1C1CCOCC1` [Ex. 6, 5-(benzothiazol-2-yl)-2-methoxymethyl-1-(tetrahydropyran-4-yl)benzimidazole]: “++”; for `CN(C)Cc1nc2cc(-c3nc4ccccc4s3)ccc2n1C1CCOCC1` [Ex. 9, 5-(benzothiazol-2-yl)-2-(N,N-dimethylaminomethyl)-1-(tetrahydropyran-4-yl)benzimidazole]: “++”; for `Cc1nc2cc(-c3nc4ccccc4o3)ccc2n1C1CCOCC1` [Ex. 11, 5-(benzoxazol-2-yl)-2-methyl-1-(tetrahydropyran-4-yl)benzimidazole]: “++”.
The same measure, in the same setting: the same measure for `CN(C)Cc1nc2cc(-c3nc4ccccc4o3)ccc2n1C1CCOCC1` [Ex. 14, 5-(benzoxazol-2-yl)-2-(N,N-dimethylaminomethyl)-1-(tetrahydropyran-4-yl)benzimidazole]: “+”.
Take `COc1ccc(-n2c(C)nc3cc(-c4nc5ccccc5o4)ccc32)cc1` [Ex. 15, 5-(benzoxazol-2-yl)-1-(4-methoxyphenyl)-2-methylbenzimidazole]: the “Activity (potentiation of NGF activity)” value is “+”.
Consider `Cc1nc2cc(-c3nc4ccccc4o3)ccc2n1C1CCCCC1` [Ex. 16, 5-(benzoxazol-2-yl)-1-cyclohexyl-2-methylbenzimidazole], for which the “Activity (potentiation of NGF activity)” value is “++”.
Regarding `Cc1nc2cc(-c3nc4ccccc4o3)ccc2n1Cc1ccccc1` [Ex. 17, 5-(benzoxazol-2-yl)-1-benzyl-2-methylbenzimidazole], the “Activity (potentiation of NGF activity)” value is reported as “++”.
Take `Cc1nc2cc(-c3cc4ccccc4o3)ccc2n1C1CCOCC1` [Ex. 19, 5-(benzofuran-2-yl)-2-methyl-1-(tetrahydropyran-4-yl)benzimidazole]: the “Activity (potentiation of NGF activity)” value is on record as “++”.
Same read-out and setting: to `c1ccc(-c2nc3cc(-c4nc5ccccc5o4)ccc3n2C2CCOCC2)nc1` [Ex. 21, 5-(benzoxazol-2-yl)-2-(2-pyridyl)-1-(tetrahydropyran-4-yl)benzimidazole] belongs “++”; to `c1ccc2oc(-c3ccc4c(c3)nc(C3CCCCC3)n4C3CCOCC3)nc2c1` [Ex. 23, 5-(benzoxazol-2-yl)-2-cyclohexyl-1-(tetrahydropyran-4-yl)benzimidazole], “++”.
Take `c1cncc(-c2nc3cc(-c4nc5ccccc5o4)ccc3n2C2CCOCC2)c1` [Ex. 24, 5-(benzoxazol-2-yl)-2-(3-pyridyl)-1-(tetrahydropyran-4-yl)benzimidazole]: the “Activity (potentiation of NGF activity)” value is on record as “++”.
`c1ccc(-c2nc3cc(-c4nc5ccccc5o4)ccc3n2C2CCOCC2)cc1` [Ex. 25, 5-(benzoxazol-2-yl)-2-phenyl-1-(tetrahydropyran-4-yl)benzimidazole]: the “Activity (potentiation of NGF activity)” value is listed as “++”.
Consider `c1ccc2oc(-c3ccc4c(c3)nc(-c3ccncc3)n4C3CCOCC3)nc2c1` [Ex. 26, 5-(benzoxazol-2-yl)-2-(4-pyridyl)-1-(tetrahydropyran-4-yl)benzimidazole], for which the “Activity (potentiation of NGF activity)” value is reported as “++”.
As for `FC(F)(F)c1nc2cc(-c3nc4ccccc4o3)ccc2n1C1CCOCC1` [Ex. 27, 5-(benzoxazol-2-yl)-1-(tetrahydropyran-4-yl)-2-trifluoromethylbenzimidazole], the “Activity (potentiation of NGF activity)” value is listed as “++”.
Consider `Cc1nc2cc(-c3nc4ccccc4o3)ccc2n1C(C)(C)C` [Ex. 29, 5-(benzoxazol-2-yl)-2-methyl-1-tert-butylbenzimidazole], for which the “Activity (potentiation of NGF activity)” value was “++”.
With `COc1ccccc1-n1c(C)nc2cc(-c3nc4ccccc4o3)ccc21` [Ex. 30, 5-(benzoxazol-2-yl)-1-(2-methoxyphenyl)-2-methylbenzimidazole], the “Activity (potentiation of NGF activity)” value is “++”.
Same read-out and setting: the same measure for `COc1cccc(-n2c(C)nc3cc(-c4nc5ccccc5o4)ccc32)c1` [Ex. 31, 5-(benzoxazol-2-yl)-1-(3-methoxyphenyl)-2-methylbenzimidazole]: “++”; for `c1ccc(CNCc2nc3cc(-c4nc5ccccc5o4)ccc3n2C2CCOCC2)cc1` [Ex. 32, 5-(benzoxazol-2-yl)-2-benzylaminomethyl-1-(tetrahydropyran-4-yl)benzimidazole]: “++”.
Same read-out and setting: the same measure for `CCOC(=O)N1CCC(n2c(C)nc3cc(-c4nc5ccccc5o4)ccc32)CC1` [Ex. 33, 5-(benzoxazol-2-yl)-1-((1-ethoxycarbonyl)piperidine-4-yl)-2-methylbenzimidazole]: “++”.
Still for that read-out and setting: the same measure for `Cc1nc2cc(-c3nc4ccccc4o3)ccc2n1C1CCNCC1` [Ex. 35, 5-(benzoxazol-2-yl)-1-(piperidine-4-yl)-2-methylbenzimidazole]: “++”.
Regarding `Cc1nc2cc(-c3cc4ccccc4n3C(=O)OC(C)(C)C)ccc2n1C1CCOCC1` [Ex. 37, 5-(N-t-butoxycarbonylindol-2-yl)-2-methyl-1-(tetrahydropyran-4-yl)benzimidazole], the “Activity (potentiation of NGF activity)” value is “++”.
On the same count and under the same terms, to `Cc1nc2cc(-c3cc4ccccc4[nH]3)ccc2n1C1CCOCC1` [Ex. 38, 5-(indol-2-yl)-1-(tetrahydropyran-4-yl)-2-methylbenzimidazole] belongs “++”.
Still for that read-out and setting: the same measure for `c1ccc2oc(-c3ccc4c(c3)nc(-c3ncc[nH]3)n4C3CCOCC3)nc2c1` [Ex. 44, 5-(benzoxazol-2-yl)-2-(imidazol-2-yl)-1-(tetrahydropyran-4-yl)benzimidazole]: “++”.

The experiment is the same for the next values; noted with them: Test Example 4, same manner as Test Example 1, relative luciferase activity vs 200 ng/mL NGF alone.
In the case of `Cc1nc2cc(-c3nc4ccccc4o3)ccc2n1CCc1ccccc1` [Ex. 52, 5-(benzoxazol-2-yl)-2-methyl-1-(2-phenylethyl)benzimidazole], the “Activity (potentiation of NGF activity)” value was “++”.
Same read-out and setting: the same measure for `Cc1nc2cc(-c3nc4ccccc4o3)ccc2n1C1CC1` [Ex. 53, 5-(benzoxazol-2-yl)-2-methyl-1-cyclopropylbenzimidazole]: “++”; for `Cc1nc2cc(-c3nc4ccccc4o3)ccc2n1CCNC(=O)OC(C)(C)C` [Ex. 55, 5-(benzoxazol-2-yl)-1-(2-(tert-butoxycarbonylamino)ethyl)-2-methylbenzimidazole]: “++”; for `Cc1nc2cc(-c3nc4ccccc4o3)ccc2n1CCN` [Ex. 56, 1-(2-aminoethyl)-5-(benzoxazol-2-yl)-2-methylbenzimidazole hydrochloride]: “++”.
As for `CC(C)(C)OC(=O)NCc1nc2cc(-c3nc4ccccc4o3)ccc2n1C1CCOCC1` [Ex. 58, 5-(benzoxazol-2-yl)-2-(tert-butoxycarbamidomethyl)-1-(tetrahydropyran-4-yl)benzimidazole], the “Activity (potentiation of NGF activity)” value is given as “++”.
`Cc1nc2cc(-c3nc4cc([N+](=O)[O-])ccc4o3)ccc2n1C1CCOCC1` [Ex. 60, 5-(5-nitrobenzoxazol-2-yl)-2-methyl-1-(tetrahydropyran-4-yl)benzimidazole]: the “Activity (potentiation of NGF activity)” value is “++”.
Still for that read-out and setting: the same measure for `c1ccc(Cc2nc3cc(-c4nc5ccccc5o4)ccc3n2C2CCOCC2)cc1` [Ex. 61, 5-(benzoxazol-2-yl)-2-benzyl-1-(tetrahydropyran-4-yl)benzimidazole]: “++”.
Same read-out and setting: to `C(=C\c1nc2cc(-c3nc4ccccc4o3)ccc2n1C1CCOCC1)/c1ccccc1` [Ex. 62, 5-(benzoxazol-2-yl)-2-trans-cinnam-1-(tetrahydropyran-4-yl)benzimidazole] belongs “++”.
